Literature values in patent US20020051978A1, “Methods and compositions for the identification, assessment, prevention and therapy of human cancers” (priority 2000, published 2002).
Read-outs that look alike come from different tables or passages of the source.

System: 60 cancer cell lines (NCI 60 cancer cell line series)
Settings: cited from earlier work

**Q.** For Sc1ncnc2nc[nH]c12 [6-mercaptopurine], which “-Log (GI50)” value (Breast BT-549 (CL5013)) is on record?
**A.** 3.9

**Q.** What about the “-Log (GI50)” value (Breast HS-578T CL5006) of the same molecule?
**A.** 4.8

**Q.** What about the “-Log (GI50)” value (Breast MCF7(I) (CL5001)) of the same molecule?
**A.** 5.8

**Q.** What about the “-Log (GI50)” value (Breast MCF7/ADRr (CL5002)) of the same molecule?
**A.** 5.5

**Q.** And the “-Log (GI50)” value (Breast MDA-MB-231 CL5005)?
**A.** 4.7

**Q.** What about the “-Log (GI50)” value (Breast MDA-MB-435 (CL5011)) of the same molecule?
**A.** 5.9

**Q.** What about the “-Log (GI50)” value (Breast MDA-N CL5012) of the same molecule?
**A.** 5.8

**Q.** And the “-Log (GI50)” value (Breast T-47D (CL5014))?
**A.** 5.4

**Q.** And the “-Log (GI50)” value (CNS SF-268 CL12014)?
**A.** 5.4

**Q.** And the “-Log (GI50)” value (CNS SF-295 CL12015)?
**A.** 5.3

**Q.** What about the “-Log (GI50)” value (CNS SF-539 CL12016) of the same molecule?
**A.** 5.6

**Q.** And the “-Log (GI50)” value (CNS SNB-19 (CL12002))?
**A.** 3.9

**Q.** What about the “-Log (GI50)” value (CNS SNB-75(I) CL12005) of the same molecule?
**A.** 5.1

**Q.** What about the “-Log (GI50)” value (CNS U251(I) CL12009) of the same molecule?
**A.** 4.9

**Q.** And the “-Log (GI50)” value (Colon COLO-250 CL4010)?
**A.** 5.3

**Q.** What about the “-Log (GI50)” value (Colon HCC-2998 (CL4002)) of the same molecule?
**A.** 5.5

**Q.** What about the “-Log (GI50)” value (Colon HCT-15 CL4015) of the same molecule?
**A.** 5.4

**Q.** What about the “-Log (GI50)” value (Colon HCT-116 (CL4003)) of the same molecule?
**A.** 5.6

**Q.** What about the “-Log (GI50)” value (Colon HT29(I) CL4001) of the same molecule?
**A.** 5.4

**Q.** And the “-Log (GI50)” value (Colon KM12 (CL4017))?
**A.** 5.1

**Q.** What about the “-Log (GI50)” value (Colon SW-620 (CL4009)) of the same molecule?
**A.** 5.2

**Q.** What about the “-Log (GI50)” value (Leukemia CCRF-CEM(I) (CL7003)) of the same molecule?
**A.** 5.9

**Q.** And the “-Log (GI50)” value (Leukemia HL-60(I) (CL7008))?
**A.** 5.6

**Q.** What about the “-Log (GI50)” value (Leukemia K562(I) CL7005) of the same molecule?
**A.** 6.5

**Q.** And the “-Log (GI50)” value (Leukemia MOLT-4 (CL7006))?
**A.** 5.8

**Q.** And the “-Log (GI50)” value (Leukemia RPMI-8226(I) (CL7010))?
**A.** 5.8

**Q.** What about the “-Log (GI50)” value (Leukemia SR CL7019) of the same molecule?
**A.** 5.9

**Q.** And the “-Log (GI50)” value (Melanoma LOX IMVI CL10001)?
**A.** 6.4

**Q.** What about the “-Log (GI50)” value (Melanoma M14 (CL10014)) of the same molecule?
**A.** 6.2

**Q.** What about the “-Log (GI50)” value (Melanoma MALME-3M CL10002) of the same molecule?
**A.** 5.4

**Q.** What about the “-Log (GI50)” value (Melanoma SK-MEL-2 (CL10005)) of the same molecule?
**A.** 5.2

**Q.** What about the “-Log (GI50)” value (Melanoma SK-MEL-5 (CL10007)) of the same molecule?
**A.** 5.1

**Q.** And the “-Log (GI50)” value (Melanoma SK-MEL-28 (CL10008))?
**A.** 3.5

**Q.** And the “-Log (GI50)” value (Melanoma UACC-62 (CL10020))?
**A.** 5.8

**Q.** And the “-Log (GI50)” value (Melanoma UACC-257 (CL10021))?
**A.** 4.8

**Q.** And the “-Log (GI50)” value (NCSLC NCI-H522 CL1003)?
**A.** 5.8

**Q.** And the “-Log (GI50)” value (NSCLC A549/ATCC (CL1004))?
**A.** 4.6

**Q.** What about the “-Log (GI50)” value (NSCLC EKVX (CL1008)) of the same molecule?
**A.** 3.6

**Q.** What about the “-Log (GI50)” value (NSCLC HOP-62 (CL1026)) of the same molecule?
**A.** 5.7

**Q.** What about the “-Log (GI50)” value (NSCLC HOP-92 (CL1029)) of the same molecule?
**A.** 5.6

**Q.** And the “-Log (GI50)” value (NSCLC NCI-H23(I) CL1001)?
**A.** 5.4

**Q.** And the “-Log (GI50)” value (NSCLC NCI-H226 CL1013)?
**A.** 4.3

**Q.** What about the “-Log (GI50)” value (NSCLC NCI-H332M CL1017) of the same molecule?
**A.** 5.1

**Q.** What about the “-Log (GI50)” value (NSCLC NCI-H460 CL1021) of the same molecule?
**A.** 5.3

**Q.** And the “-Log (GI50)” value (Ovarian IGROV1 CL6010)?
**A.** 5.1

**Q.** What about the “-Log (GI50)” value (Ovarian OVCAR-3 CL6001) of the same molecule?
**A.** 6.1

**Q.** And the “-Log (GI50)” value (Ovarian OVCAR-4 CL6002)?
**A.** 5.1

**Q.** And the “-Log (GI50)” value (Ovarian OVCAR-5 CL6003)?
**A.** 5.1

**Q.** What about the “-Log (GI50)” value (Ovarian OVCAR-8 CL6005) of the same molecule?
**A.** 5.6

**Q.** And the “-Log (GI50)” value (Ovarian SK-OV-3 CL6011)?
**A.** 6.0

**Q.** And the “-Log (GI50)” value (Prostate DU-145 CL11003)?
**A.** 5.6

**Q.** And the “-Log (GI50)” value (Prostate PC-3(I) CL11001)?
**A.** 5.4

**Q.** And the “-Log (GI50)” value (Renal 786-O CL9018)?
**A.** 5.7

**Q.** What about the “-Log (GI50)” value (Renal A498 CL9013) of the same molecule?
**A.** 4.2

**Q.** What about the “-Log (GI50)” value (Renal ACHN CL9023) of the same molecule?
**A.** 5.2

**Q.** And the “-Log (GI50)” value (Renal CAKI-1 CL9015)?
**A.** 5.6

**Q.** And the “-Log (GI50)” value (Renal RXF-393 CL9016)?
**A.** 4.5

**Q.** What about the “-Log (GI50)” value (Renal SN12C CL9008) of the same molecule?
**A.** 4.6

**Q.** What about the “-Log (GI50)” value (Renal TK10 CL9024) of the same molecule?
**A.** 5.7

**Q.** What about the “-Log (GI50)” value (Renal UO-31 CL9004) of the same molecule?
**A.** 5.2
